Results reported in US12459939B2 (SHANGHAI RINGENE BIOPHARMA CO., LTD., priority 2019, dated 2025).

Tests used:
[1] = Metabolic stability in mouse liver microsomes; assay type: in vitro ADME; conditions: liver microsomes 0.5 mg/mL, NADPH, 1 μM compound, read-out: Mouse microsomal T1/2
Procedure: (§1) (1) Metabolic stability test: 150 μL of liver microsomes (final concentration was 0.5 mg/mL) were subjected to metabolic stability incubation, the system containing NADPH (final concentration was 1 mM), 1 μM of the test compound and the positive control midazolam or the negative control atenolol, the reaction was terminated with acetonitrile containing tinidazole at 0 min, 5 min, 10 min, and 30 min, respectively, then the mixture was vortexed for 10 min, and centrifuged at 15000 rmp for 10 min, 50 μL of the supernatant was injected into 96 well. The metabolic stability of the compound was calculated by measuring the relative reduction of the original drug. (See Table 3 for specific values)

CYP2C19 = biological target: T1, CYP2C19 (Homo sapiens, UniProt P33261); experiment: Direct inhibition test (DI test) in human liver microsomes, CYP2C19; assay type: in vitro ADME; conditions: read-out: inhibitory IC50 on CYP 2C19
T1 construct: human liver microsomes (final concentration was 0.2 mg/mL); from tissue; host or cells: human liver microsomes
Procedure: (§2) (2) Direct inhibition test (DI test): 1004 of human liver microsomes (final concentration was 0.2 mg/mL) system was subjected to inhibition incubation directly, the system contains NADPH (final concentration was 1 mM), 10 μM compound, positive inhibitor cocktail (ketoconazole 10 μM, quinidine 10 μM, sulfapyrazole 100 μM, a-naphthoflavone 10 μM, tranylcypromine […]), negative control (0.1% DMSO BPS) and mixed probe substrate (midazolam 1004, testosterone 10004, dextromethorphan 10 μM, diclofenac 20 μM, phenacetin 100 μM, mephenytoin 100 μM), the reaction was terminated after incubation for 20 min. The relative enzyme activity was calculated by measuring the relative production of metabolites.

[2] = Metabolic stability in dog liver microsomes; assay type: in vitro ADME; conditions: liver microsomes 0.5 mg/mL, NADPH, 1 μM compound, read-out: Dog microsomal T1/2
Procedure: as §1

CYP2C8 = biological target: T2, CYP2C8 (Homo sapiens, UniProt P10632); experiment: Direct inhibition test (DI test) in human liver microsomes, CYP2C8; assay type: in vitro ADME; conditions: read-out: inhibitory IC50 on CYP 2C8
T2 sequence (P10632 1-490): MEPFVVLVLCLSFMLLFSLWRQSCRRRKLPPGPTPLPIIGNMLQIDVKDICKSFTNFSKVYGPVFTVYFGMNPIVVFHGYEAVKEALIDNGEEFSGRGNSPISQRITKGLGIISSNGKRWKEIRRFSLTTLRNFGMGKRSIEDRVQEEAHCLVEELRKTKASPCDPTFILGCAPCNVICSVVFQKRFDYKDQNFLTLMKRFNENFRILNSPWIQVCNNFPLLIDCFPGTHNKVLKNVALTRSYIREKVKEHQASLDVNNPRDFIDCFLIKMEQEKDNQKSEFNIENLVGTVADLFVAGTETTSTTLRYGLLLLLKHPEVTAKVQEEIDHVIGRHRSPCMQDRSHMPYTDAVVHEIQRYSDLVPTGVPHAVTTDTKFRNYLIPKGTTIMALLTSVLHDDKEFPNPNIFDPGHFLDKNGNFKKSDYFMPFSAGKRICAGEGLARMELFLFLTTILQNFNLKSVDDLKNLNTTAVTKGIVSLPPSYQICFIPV
Procedure: as §2

[3] = Metabolic stability in rat liver microsomes; assay type: in vitro ADME; conditions: liver microsomes 0.5 mg/mL, NADPH, 1 μM compound, read-out: Rat microsomal T1/2
Procedure: as §1

[4] = system: most AML cell lines and prostate cancer cell lines; experiment: Proliferation inhibition of different cell lines: AML and prostate cancer lines; assay type: cell-based; conditions: read-out: proliferation inhibitory activity IC50
Procedure: The proliferation inhibitory activity of some of the embodiment compounds against different cell lines such as LNCAP (+R1881), SKM-1, 22RV1, DU145, MOLM13, MDA-PCA-2b, KASUMI 1, THP-1, KG-1, IEC6, H1299, etc., was tested using similar methods in test embodiment 2 and in the literature.

[5] = In vivo pharmacokinetics in beagle dogs; conditions: dog, plasma, po, gavage, 10 mg/kg
[6] = system: MV 4-11 transplanted tumor; experiment: Growth inhibition of MV 4-11 transplanted tumor in nude mice; assay type: in vivo; conditions: for inhibitory rate (growth of transplanted tumor): dose of 15 mpk, oral, daily; for tolerability in experimental animals / tumor inhibitory effect: higher doses, 50 mg/kg-100 mg/kg
Procedure: The tumor tissue in vigorous growth stage was cut into about 1.5 mm^3 and inoculated subcutaneously in the right armpit of nude mice under sterile conditions. The diameter of subcutaneous transplanted tumor in nude mice was measured with vernier caliper, and the animals were randomly divided into groups when the average tumor volume was about 130 mm^3. […] During the whole experiment, the diameter of the transplanted tumor was measured twice a week, and the weight of mice was weighed at the same time. The calculation formula of tumor volume (TV) was: TV=½×a×b^2, wherein a and b represent the length and width respectively. The relative tumor volume (RTV) was calculated according to the measurement results, and the calculation formula was: RTV=VT/v0. Wherein VO is the tumor volume measured during the administration in cage (i.e., d0), and Vt is the tumor volume at each measurement.

CYP1A2 = biological target: T3, CYP1A2 (Homo sapiens, UniProt P05177); experiment: Direct inhibition test (DI test) in human liver microsomes, CYP1A2; assay type: in vitro ADME; conditions: read-out: inhibitory IC50 on CYP1A2
T3 construct: human liver microsomes (final concentration was 0.2 mg/mL); from tissue; host or cells: human liver microsomes
T3 sequence (P05177 1-516): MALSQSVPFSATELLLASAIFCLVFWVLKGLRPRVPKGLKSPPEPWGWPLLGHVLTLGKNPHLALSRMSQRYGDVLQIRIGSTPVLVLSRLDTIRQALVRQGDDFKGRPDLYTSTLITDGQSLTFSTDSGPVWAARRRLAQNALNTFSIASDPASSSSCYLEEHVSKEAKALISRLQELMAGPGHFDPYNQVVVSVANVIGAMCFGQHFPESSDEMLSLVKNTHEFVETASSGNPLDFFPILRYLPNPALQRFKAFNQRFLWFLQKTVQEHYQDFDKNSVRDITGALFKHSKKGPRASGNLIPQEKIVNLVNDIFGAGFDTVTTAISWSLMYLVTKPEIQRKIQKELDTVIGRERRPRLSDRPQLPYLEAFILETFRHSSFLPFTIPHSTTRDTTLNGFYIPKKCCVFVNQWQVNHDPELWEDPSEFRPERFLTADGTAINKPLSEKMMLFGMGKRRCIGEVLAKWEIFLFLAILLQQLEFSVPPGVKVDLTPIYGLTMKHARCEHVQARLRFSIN
Procedure: as §2

T1 sequence (P33261 whole entry): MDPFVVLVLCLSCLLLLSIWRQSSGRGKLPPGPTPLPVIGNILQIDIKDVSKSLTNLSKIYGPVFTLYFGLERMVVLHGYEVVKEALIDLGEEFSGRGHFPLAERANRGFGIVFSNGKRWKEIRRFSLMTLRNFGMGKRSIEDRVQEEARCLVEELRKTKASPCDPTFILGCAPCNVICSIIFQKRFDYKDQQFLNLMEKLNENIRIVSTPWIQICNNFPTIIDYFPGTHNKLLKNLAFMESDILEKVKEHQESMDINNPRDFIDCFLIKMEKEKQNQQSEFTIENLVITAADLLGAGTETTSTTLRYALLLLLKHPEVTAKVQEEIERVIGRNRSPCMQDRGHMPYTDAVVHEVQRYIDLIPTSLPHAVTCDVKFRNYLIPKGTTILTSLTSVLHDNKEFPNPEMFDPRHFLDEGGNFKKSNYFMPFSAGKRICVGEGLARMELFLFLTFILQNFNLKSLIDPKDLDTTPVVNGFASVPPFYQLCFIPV

Compound	half-life at 1 μM [1] [h]	IC50 (CYP2C19) [µM]	half-life at 1 μM [2] [h]	IC50 at 20 min (CYP2C8) [µM]	half-life at 1 μM [3] [h]	IC50 [4] [µM]	AUC [5] [µM·h]	Cmax [5] [nM]	half-life [5] [h]	inhibitory rate (growth of transplanted tumor) [6] [%]	tolerability in experimental animals [6]	tumor inhibitory effect [6]	IC50 (CYP1A2) [µM]
Cc1cc(F)cc(C)c1Oc1ccc(C(C)(C)O)cc1-c1cn(C)c(=O)c2cc(C(=O)NC3CC(F)(F)C3)[nH]c12 [Embodiment 18, N-(3,3-difluorocyclobutyl)-7-(2-(4-fluoro-2,6-dimethylphenoxy)-5-(2-hydroxyprop-2-yl)phenyl)-5-methyl-4-oxo-4,5-dihydro-1H-pyrrolo[3,2-c] pyridine-2-amide]	1.27	> 15	6.67	> 15	1.38	< 1	> 15	2000	> 2	82	tolerate it well	obvious	> 15
CCNC(=O)c1cc2c(=O)n(C)cc(-c3cc(C(C)(C)O)ccc3Oc3c(C)cc(F)cc3C)c2[nH]1 [compound 1, reference compound]	–	> 15	–	> 15	–	< 1	> 15	2000	> 2	82	tolerate it well	obvious	> 15
